# Experimental data as given in patent US12426614B2, “Lentinula edodes-derived saltiness enhancing peptide, method for preparing the same and use thereof” (Shanghai Academy of Agricultural Sciences, priority 2023, dated 2025).
# Key:
# sensory evaluation team = experiment: Saltiness threshold analysis by triangle test method; type: in vivo; details: serial 1:1 dilution from 1.0 mg/mL; for saltiness threshold: NaCl as positive control
# Procedure: The threshold analysis was conducted by triangle test method. […] A mass concentration of the penultimate solution was recorded as the salinity threshold for the synthetic peptide.
# [1] = Electronic tongue saltiness measurement of peptide / NaCl solutions
# Procedure: In order to understand the flavor characteristics of DIQPEER synthetic peptide solutions of different concentrations in NaCl solutions of different concentrations, 0.5 g/L, 1.0 g/L, 1.5 g/L, and 2.0 g/L DIQPEER synthetic peptide aqueous solutions were added into 3.5 g/L, 3.0 g/L, 2.5 g/L, and 2.0 g/L NaCl solutions, respectively, for electronic tongue measurement.
# As the concentration of synthetic peptides increased, the concentration of NaCl solution decreased and the saltiness enhancing effect weakened. Without affecting the overall solution taste, DIQPEER could replace about 50% of NaCl compared to the saltiness value of 4.0 g/L NaCl solution.
Molecule,saltiness threshold (sensory evaluation team) [mM],Threshold (sensory evaluation team; saltiness threshold) [mmol/L],"saltiness intensity of peptide aqueous solutions ([1]; 0.5, 1.0, 1.5 and 2.0 g/L DIQPEER, FIG. 7)","salinity of the solution (synergy with NaCl) ([1]; 1.0 g/L synthetic peptide added to 3.0 g/L NaCl solution, FIG. 8)","saltiness enhancement (increase of saltiness value) ([1]; 1.0 g/L synthetic peptide added to 3.0 g/L NaCl solution, compared with saltiness value of 4.0 g/L NaCl solution) [%]",share of NaCl that can be replaced ([1]; compared to the saltiness value of 4.0 g/L NaCl solution)
"[Cl-].[Na+] [NaCl, reference compound]",1.07,–,–,–,–,–
DIQPEER,0.282,0.282,saltiness intensity increased with the increase of the concentration,increased significantly,69.59,about 50%
